Where two headings read alike, the source gives them in different places.

In data set [1] the target is T1, ER (Homo sapiens, UniProt P03372).
T1 construct: T47D breast cancer cells were subcultured in cell culture medium; endogenous in cells; host or cells: T47D breast cancer cells
T1 sequence (P03372 1-595): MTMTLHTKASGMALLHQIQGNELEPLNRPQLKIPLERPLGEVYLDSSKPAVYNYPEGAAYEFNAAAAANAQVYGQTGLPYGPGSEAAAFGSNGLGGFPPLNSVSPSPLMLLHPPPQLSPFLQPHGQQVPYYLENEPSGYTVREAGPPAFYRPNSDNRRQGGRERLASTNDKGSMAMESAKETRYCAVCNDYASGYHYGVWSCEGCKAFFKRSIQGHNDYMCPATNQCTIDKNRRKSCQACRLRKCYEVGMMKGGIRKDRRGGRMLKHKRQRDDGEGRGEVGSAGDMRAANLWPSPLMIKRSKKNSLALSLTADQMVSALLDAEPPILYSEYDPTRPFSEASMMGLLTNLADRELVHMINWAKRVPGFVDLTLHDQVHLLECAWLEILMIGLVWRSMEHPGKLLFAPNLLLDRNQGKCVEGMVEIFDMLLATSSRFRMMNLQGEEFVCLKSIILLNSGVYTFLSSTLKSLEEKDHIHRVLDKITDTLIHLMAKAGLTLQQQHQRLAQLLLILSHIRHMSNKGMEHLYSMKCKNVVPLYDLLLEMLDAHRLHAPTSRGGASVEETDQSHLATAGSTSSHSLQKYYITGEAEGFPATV
Put plainly: Degradation activities on ER (ELISA) in T47D breast cancer cells. Type of data set: cell-based. Conditions: T47D cells, 24 h, ELISA; for DC50: concentration required to degrade 50% of the target protein; for Dmax: maximum percentage of target protein degraded. The procedure, abridged:
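T47D cells were seeded at 2.5×10^4/well, grown 3 days at 37 °C, 5% CO2, then exposed 24 h to compound at 100, 25, 6.25, 1.56, 0.39 and […] nM (final). ER protein was quantified by sandwich ELISA with HRP/TMB read at 450 nm, and DC50 and Dmax came from dose-response fits.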

Data set [2] relates to MCF-7 breast cancer cells. Put plainly: Inhibition of proliferation of MCF-7 breast cancer cells (agarose culture, CellTiter-Glo 3D). Type of data set: cell-based. Conditions: MCF-7 cells, 15 days of cultivation, read-out: IC50.
The target of data set [3] is T1, ER. Description: Degradation activities on ER (Western blotting) in T47D breast cancer cells. The data set is classed as cell-based. Conditions: Western blot; for Percentage reduction of ER: 24 h. The procedure, abridged:
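T47D cells seeded 2.5×10^5/well, grown overnight, then treated 24 hours with compound (0.1% DMSO) in duplicate. ERα level measured by Western blot of 30 μg lysate protein, with GAPDH as loading control and ECL chemiluminescence detection.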

Data set [4] can be described thus: Pharmacokinetics in female ICR mice. Conditions: plasma; for AUCinf (μg*h/mL) / T1/2 (h) / AUC(0-inf): oral administration 3 mg/kg, female ICR mice; for half-life / AUC(0-inf): female, ICR, mouse, po; for AUC(0-inf): AUCinf (μg*h/mL).
Description: Pharmacokinetic experimental steps: A suitable amount of compound to be administered was weighed, and after the final volume required was calculated, a drug solution with corresponding concentration was prepared using the medium (DMSO/HS-15/Tween 80/D5W (5:5:2:88, v/v/v/v)). For intravenous administration, each drug was administered to 9 animals (female ICR mice, provided by Chengdu Dossy Experimental Animal Co., Ltd.) at a dose of 1 mg/kg (drug volume of 10 mL/kg, drug concentration of 0.1 mg/mL). After administration, samples were alternately collected from three animals of each group at time points of 5 min, 15 min, 30 min, 1 h, 2 h, 4 h, 8 h, 12 h, and 24 h. For oral gavage, each drug was administered to 9 animals (female ICR mice) at a dose of 3 mg/kg (drug volume of 10 mL/kg, drug concentration of 0.3 mg/mL). After administration, samples are alternately collected from three animals of each group at time points of 15 min, 30 min, 1 h, 2 h, 4 h, 6 h, 8 h, 12 h, and 24 h. The samples were anticoagulated with EDTA-K2 and centrifuged at 4° C. for 5 min to separate the plasma. The plasma samples were vortexed and mixed. A suitable amount of internal standard working solution was added to the 96-well plate containing samples used for plotting standard curve, samples used for quality control, or samples to be tested; A suitable amount of methanol was added to the blank sample, vortexed and mixed thoroughly, and then centrifuged for 15 min before the supernatant was collected and injected to LC-MS/MS for analysis. The plasma concentration at each time point was used to calculate the main pharmacokinetic parameters using the Winnolin 8.3 non-compartmental model.

For the compound `O=C1CCC(N2Cc3cc(N4CCC(CN5CC6(CCN(c7ccc([C@@H]8c9ccc(O)cc9CC[C@@H]8c8ccccc8)cc7)CC6)C5)CC4)ccc3C2=O)C(=O)N1` (some centres unmarked) [Example 11], the DC50 on ER [1] is under 0.01 µM. For the same compound, on ER [1] (read-out: Dmax), the greatest degradation seen (Dmax) fell in the range of 50 to 75%. The 50% inhibitory concentration (IC50) in data set [2] (Homo sapiens, MCF7, 360 h) is under 0.01 µM. The “Percentage reduction of ER” value at ER [3] (compound concentration 10 nM) was 84%.
On ER [1], `O=C1CCC(N2Cc3cc(N4CC5CN(CC6CCN(c7ccc([C@@H]8c9ccc(O)cc9CC[C@@H]8c8ccccc8)cc7)CC6)CC5C4)ccc3C2=O)C(=O)N1` (stereo partly drawn) [Example 26, 3-(5-(5-((1-(4-((1R,2S)-6-hydroxyl-2-phenyl-1,2,3,4-tetrahydronaphthalen-1-yl)phenyl)piperidin-4-yl)methyl)hexahydropyrrolo[3,4-c]pyrrole-2(1H)-yl)-1-oxoisoinodolin-2-yl)piperidin-2,6-dione] gave a half-maximal degradation concentration (DC50) of under 0.01 µM. On ER [1] (read-out: Dmax), the maximal degradation (Dmax) is 50 to 75%. The IC50 in data set [2] (Homo sapiens, MCF7, 360 h) was under 0.01 µM. On ER [3] (compound concentration 1 nM), the “Percentage reduction of ER” value was 56%.
On ER [1], `O=C1CCC(N2Cc3cc(N4CC5(CCN(CC6CCN(c7ccc([C@@H]8c9ccc(O)cc9OC[C@@H]8c8ccccc8F)cc7)CC6)CC5)C4)ccc3C2=O)C(=O)N1` (some centres unmarked) [Example 30] had a DC50 of under 0.01 µM. Also, at ER [1] (read-out: Dmax), the Dmax fell in the range of 50 to 75%. Also, in data set [4], the “AUCinf (μg*h/mL)” value is reported as “B (B: 1.4-2.5 μg*h/mL)” and the “T1/2 (h)” value was “A (A: >3.5 h)”. Besides, in data set [2] (Homo sapiens, MCF7, 360 h), the IC50 was under 0.01 µM. Besides, at ER [3] (compound concentration 1 nM), the “Percentage reduction of ER” value is 62%.
In turn, `O=C1CCC(N2Cc3cc(N4CC5(CCN(CC6CCN(c7c(F)cc([C@@H]8c9ccc(O)cc9OC[C@@H]8c8ccccc8F)cc7F)CC6)CC5)C4)ccc3C2=O)C(=O)N1` (stereo partly drawn) [Example 32, 3-(5-(7-((1-(2,6-difluoro-4-((3,4-cis)-3-(2-fluorophenyl)-7-hydroxybenzodihydropyran-4-yl)phenyl)piperidin-4-yl)methyl)-2,7-diazaspiro[3.5]nonane-2-yl)-1-oxoisoinodolin-2-yl)piperidin-2,6-dione] had a half-maximal degradation concentration (DC50) at ER [1] of under 0.01 µM. The Dmax at ER [1] (read-out: Dmax) was 50 to 75%. In data set [4] (3 mg/kg), the half-life was over 3.5 h and the area under the curve AUC(0-inf) lay within 1400 to 2500 ng·h/mL. Moreover, the IC50 in data set [2] (Homo sapiens, MCF7, 360 h) is under 0.01 µM. In addition, the “Percentage reduction of ER” value on ER [3] (compound concentration 10 nM) is listed as 81%.
Compound `O=C1CCC(N2Cc3cc(N4CC5(CCN(CC6CCN(c7c(F)cc([C@@H]8c9ccc(O)cc9OC[C@@H]8c8c(F)cccc8F)cc7F)CC6)CC5)C4)ccc3C2=O)C(=O)N1` (some centres unmarked) [Example 37] displayed a 50% degradation concentration (DC50) at ER [1] of under 0.01 µM. For the same compound, the maximal degradation (Dmax) on ER [1] (read-out: Dmax) is 50 to 75%. In data set [4] (3 mg/kg), this compound registered a half-life of over 3.5 h and a total exposure AUC(0-inf) of over 2500 ng·h/mL.
Consider `O=C1CCC(N2Cc3cc(N4CC5(CCN(CC6CCN(c7ccc([C@@H]8c9ccc(O)cc9OC[C@@H]8c8c(F)cccc8F)cc7)CC6)CC5)C4)ccc3C2=O)C(=O)N1` (some centres unmarked) [Example 63, 3-(5-(7-((1-(4-(3-(2,6-difluorophenyl)-7-hydroxyl-chroman-4-yl)phenyl)piperidin-4-yl)methyl)-2,7-diazaspiro[3.5]nonane-2-yl)-1-oxoisoinodolin-2-yl)piperidin-2,6-dione], for which the Dmax at ER [1] (read-out: Dmax) lay in the range of 50 to 75%. In data set [4] (3 mg/kg), this compound gave a half-life of over 3.5 h and an AUC(0-inf) of over 2500 ng·h/mL. Also, the concentration for half-maximal inhibition (IC50) in data set [2] (Homo sapiens, MCF7, 360 h) is under 0.01 µM. In addition, the “Percentage reduction of ER” value on ER [3] (compound concentration 10 nM) turned out to be 51%.
As for `O=C1CCC(N2Cc3cc(N4CC5(CCN(CC6CCN(c7ccc([C@@H]8c9ccc(O)cc9OC[C@@H]8c8c(F)cccc8F)cc7F)CC6)CC5)C4)ccc3C2=O)C(=O)N1` (some centres unmarked) [Example 65, 3-(5-(7-((1-(4-(3-(2,6-difluorophenyl)-7-hydroxyl-chroman-4-yl)-2-fluorophenyl)piperidin-4-yl)methyl)-2,7-diazaspiro[3.5]nonane-2-yl)-1-oxoisoinodolin-2-yl)piperidin-2,6-dione], the 50% degradation concentration (DC50) on ER [1] was under 0.01 µM. The Dmax at ER [1] (read-out: Dmax) was in the range of 50 to 75%. Moreover, in data set [4] (3 mg/kg), the half-life is over 3.5 h and the AUC(0-inf) is over 2500 ng·h/mL. Moreover, the half-inhibitory concentration (IC50) in data set [2] (Homo sapiens, MCF7, 360 h) fell in the range of 0.011 to 0.05 µM.
In the case of `O=C1CCC(N2Cc3cc(N4CC5(CCN(CC6CCN(c7ccc([C@@H]8c9ccc(O)cc9OC[C@@H]8c8c(F)cccc8F)cc7F)CC6)CC5)C4)ccc3C2=O)C(=O)N1` (stereo partly drawn) [Example 70, 3-(5-(7-((1-(4-((3S,4R)-3-(2,6-difluorophenyl)-7-hydroxychroman-4-yl)-2-fluorophenyl)piperidin-4-yl)methyl)-2,7-diazaspiro[3.5]nonane-2-yl)-1-oxoisoinodolin-2-yl)piperidin-2,6-dione], on ER [1], the 50% degradation concentration (DC50) is under 0.01 µM and the greatest degradation seen (Dmax) result is recorded as “B (B: 75-50%)”. In addition, in data set [4], the “AUCinf (μg*h/mL)” value was “A (A: > 2.5 μg*h/mL)” and the “T1/2 (h)” value is “A (A: >3.5 h)”. Moreover, the IC50 in data set [2] is under 0.01 µM.
For `O=C1CCC(N2Cc3cc(N4CC5(CCN(CC6CCN(c7ccc([C@@H]8c9ccc(O)cc9OC[C@@H]8c8c(F)cccc8F)cc7)CC6)CC5)C4)ccc3C2=O)C(=O)N1` (stereo partly drawn) [Example 73, 3-(5-(7-((1-(4-((3S,4R)-3-(2,6-difluorophenyl)-7-hydroxychroman-4-yl)phenyl)piperidin-4-yl)methyl)-2,7-diazaspiro[3.5]nonane-2-yl)-1-oxoisoindol-2-yl)piperidin-2,6-dione], on ER [1], the maximal degradation (Dmax) entry was “B (B: 75-50%)”. The “T1/2 (h)” value in data set [4] is “A (A: >3.5 h)”. For the same compound, the “AUCinf (μg*h/mL)” value in data set [4] (3 mg/kg) was “B (B: 1.4-2.5 μg*h/mL)”. The 50% inhibitory concentration (IC50) in data set [2] is under 0.01 µM.
In turn, `O=C1CCC(N2Cc3cc(N4CC5(CCN(CC6CCN(c7ccc([C@@H]8c9ccc(O)cc9OC[C@@H]8c8ccccc8)cc7)CC6)CC5)C4)ccc3C2=O)C(=O)N1` (stereo partly drawn) [Example 79, 3-(5-(7-((1-(4-((3S,4R)-7-hydroxyl-3-phenylchroman-4-yl)phenyl)piperidin-4-yl)methyl)-2,7-diazaspiro[3.5]nonane-2-yl)-1-oxoisoinodolin-2-yl)piperidin-2,6-dione] came in with a DC50 at ER [1] of under 0.01 µM. In addition, the Dmax on ER [1] (read-out: Dmax) lay within 50 to 75%. In addition, in data set [2] (Homo sapiens, MCF7, 360 h), the IC50 is under 0.01 µM. On ER [3] (compound concentration 1 nM), the “Percentage reduction of ER” value is given as 70%.
With `O=C1CCC(N2C(=O)c3ccc(N4CC5(CCN(CC6CCN(c7ccc([C@@H]8c9ccc(O)cc9OC[C@@H]8c8ccccc8)cc7)CC6)CC5)C4)cc3C2=O)C(=O)N1` (stereo partly drawn) [Example 81, 2-(2,6-dioxopiperidin-3-yl)-5-(7-((1-(4-((3S,4R)-7-hydroxyl-3-phenylchroman-4-yl)phenyl)piperidin-4-yl)methyl)-2,7-diazaspiro[3.5]nonane-2-yl)isoinodolin-1,3-dione], the DC50 on ER [1] fell in the range of 0.01 to 0.05 µM. For the same compound, on ER [1] (read-out: Dmax), the Dmax was in the range of 50 to 75%. Moreover, in data set [2] (Homo sapiens, MCF7, 360 h), the IC50 fell in the range of 0.011 to 0.05 µM. On ER [3], the “ER degradation activity (in words)” value was “good ER degradation activity”. Further, the “Percentage reduction of ER” value at ER [3] (compound concentration 10 nM) was found to be 82%.
`O=C1CCC(N2Cc3cc(N4CC5(CCN(CC6CCN(c7ccc([C@@H]8c9ccc(O)cc9OC[C@@H]8c8ccccc8)cc7F)CC6)CC5)C4)ccc3C2=O)C(=O)N1` (stereo partly drawn) [Example 88, 3-(5-(7-((1-(2-fluoro-4-(cis-7-hydroxyl-3-phenylchroman-4-yl)phenyl)piperidin-4-yl)methyl)-2,7-diazaspiro[3.5]nonane-2-yl)-1-oxoisoinodolin-2-yl)piperidin-2,6-dione] showed a half-maximal degradation concentration (DC50) at ER [1] of under 0.01 µM. For the same compound, the greatest degradation seen (Dmax) on ER [1] (read-out: Dmax) was 50 to 75%. Further, in data set [2] (Homo sapiens, MCF7, 360 h), the IC50 is under 0.01 µM. For the same compound, on ER [3] (compound concentration 10 nM), the “Percentage reduction of ER” value was found to be 47%.
As for `O=C1CCC(N2Cc3cc(N4CC5(CCN(CC6CCN(c7ccc([C@@H]8c9ccc(O)cc9OC[C@@H]8c8ccccc8F)cc7)CC6)CC5)C4)ccc3C2=O)C(=O)N1` (stereo partly drawn) [Example 89, 3-(5-(7-((1-(4-((3S, 4R)-3-(2-fluorophenyl)-7-hydroxychroman-4-yl)phenyl)piperidin-4-yl)methyl)-2,7-diazaspiro[3.5]nonane-2-yl)-1-oxoisoinodolin-2-yl)piperidin-2,6-dione], at ER [1], the half-maximal degradation concentration (DC50) is under 0.01 µM and the Dmax result is “B (B: 75-50%)”. In data set [4] (3 mg/kg), this compound showed a half-life of over 3.5 h and an AUC(0-inf) of 1400 to 2500 ng·h/mL. For the same compound, the half-maximal inhibitory concentration (IC50) in data set [2] is under 0.01 µM. Further, the “Percentage reduction of ER” value on ER [3] (compound concentration 1 nM) is on record as 52%.

Values taken from US20260258039A1, “AROMATIC COMPOUND, METHOD FOR PREPARING SAME, AND USE THEREOF IN PREPARATION OF ESTROGEN RECEPTOR DEGRADER” (Hinova Pharmaceuticals Inc., priority 2022, published 2026).
